Data reported in patent US8362000B2, “Azetidinyl diamides as monoacylglycerol lipase inhibitors” (Janssen Pharmaceutica NV, priority 2009, dated 2013).
Residue numbers refer to the chain shown, from its start. Read-outs that look alike come from different tables or passages of the source.

Legend:
mutant MGL = molecular target: T1, mutant MGL (Homo sapiens, UniProt Q99685, L169S/L176S); experiment: MGL ThermoFluor assay - mutant; assay type: binding
T1 sequence (Q99685 1-303 L169S/L176S): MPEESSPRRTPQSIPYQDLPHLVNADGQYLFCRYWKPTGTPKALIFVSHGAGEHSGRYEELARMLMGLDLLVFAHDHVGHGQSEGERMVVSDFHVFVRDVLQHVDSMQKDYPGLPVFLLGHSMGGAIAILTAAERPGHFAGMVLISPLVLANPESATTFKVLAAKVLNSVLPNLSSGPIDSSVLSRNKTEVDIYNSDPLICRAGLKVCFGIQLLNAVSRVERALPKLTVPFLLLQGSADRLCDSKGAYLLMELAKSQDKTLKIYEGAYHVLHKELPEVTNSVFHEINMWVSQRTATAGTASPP

MGL = molecular target: T2, MGL (Rattus norvegicus, UniProt Q8R431); experiment: 2-AG accumulation assay in rat brain homogenate; assay type: biochemical; conditions: rat brain homogenate; compound 1 μM; 2-AG accumulation as percent of vehicle; read-out: Rat Brain 2AG % VehCntrl (%) @ 1 μM
T2 construct: one g rat brain was homogenized using a Polytron homogenizer; from tissue; host or cells: rat brain homogenate
T2 sequence (Q8R431 1-303): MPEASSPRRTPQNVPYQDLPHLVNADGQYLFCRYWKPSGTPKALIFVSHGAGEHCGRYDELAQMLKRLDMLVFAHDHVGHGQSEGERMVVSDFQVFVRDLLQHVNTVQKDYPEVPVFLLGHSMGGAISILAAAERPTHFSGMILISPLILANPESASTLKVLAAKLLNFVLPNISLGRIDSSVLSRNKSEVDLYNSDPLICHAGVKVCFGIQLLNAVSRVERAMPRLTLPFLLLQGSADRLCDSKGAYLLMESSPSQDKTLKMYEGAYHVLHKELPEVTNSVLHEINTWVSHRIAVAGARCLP

[1] = molecular target: T3, purified wild type MGL (wt-MGLL 6H-11-313) (Homo sapiens, UniProt Q99685)
T3 sequence (Q99685 1-303): T1 sequence (Q99685 1-303 L169S/L176S) with S169L, S176L

[2] = ThermoFluor concentration-response, read-out: MGL mutant ThermoFluor Kd
[3] = ThermoFluor, compound concentration measured by qNMR, read-out: MGL mutant ThermoFluor qKd (using qNMR conc.)
[4] = ThermoFluor, compound concentration measured by qNMR, read-out: MGL mutant ThermoFluor qKd (μM) (using qNMR conc.)
[5] = compound concentration measured by qNMR, read-out: MGL mutant ThermoFluor qKd (using qNMR conc.)

| Kd (mutant MGL; [2]) [µM] | 2-AG accumulation, % of vehicle control at 1 µM (MGL) [%] | IC50 [1] [µM] | Kd (mutant MGL; [3]) [µM] | Kd (mutant MGL; [4]) [µM] | Kd (mutant MGL; [5]) [µM] | Kd (mutant MGL; ThermoFluor thermal stability binding assay, read-out: MGL mutant ThermoFluor Kd) [µM] | SMILES |
| --- | --- | --- | --- | --- | --- | --- | --- |
| 0.028 | 696 | 0.007 |  |  |  |  | O=C(c1cscn1)N1CCN(C2CN(C(=O)c3cc4ccn(-c5ccc(F)cc5)c4cc3F)C2)CC1 [Cpd 1069] |
| 0.025 | 552 | 0.008 |  |  |  |  | O=C(c1ccc(-c2ccc(C(F)(F)F)s2)cc1)N1CC(N2CCN(C(=O)c3cscn3)CC2)C1 [Cpd 1071, 1-(1,3-Thiazol-4-ylcarbonyl)-4-[1-({4-[5-(trifluoromethyl)thiophen-2-yl]phenyl}carbonyl)azetidin-3-yl]piperazine] |
|  | 839 | 0.008 | 0.007 |  |  |  | COc1ccc(-n2ccc3cc(C(=O)N4CC(N5CCN(C(=O)c6nccs6)CC5)C4)ccc32)cn1 [Cpd 1072, 1-(6-Methoxypyridin-3-yl)-5-({3-[4-(1,3-thiazol-2-ylcarbonyl)piperazin-1-yl]azetidin-1-yl}carbonyl)-1H-indole] |
| 0.011 | 303 | 0.008 |  |  |  |  | Cc1cc(-c2ccccc2)ccc1C(=O)N1CC(N2CCN(C(=O)c3nccs3)CC2)C1 [Cpd 1074, 1-{1-[(3-Methylbiphenyl-4-yl)carbonyl]azetidin-3-yl}-4-(1,3-thiazol-2-ylcarbonyl)piperazine] |
|  | 833 | 0.008 |  | 0.01 |  |  | Cc1c(C(=O)N2CC(N3CCN(C(=O)c4nccs4)CC3)C2)[nH]c2ccc(-c3ccc(F)cc3)cc12 [Cpd 1075, 5-(4-Fluorophenyl)-3-methyl-2-({3-[4-(1,3-thiazol-2-ylcarbonyl)piperazin-1-yl]azetidin-1-yl}carbonyl)-1H-indole] |
|  | 667 | 0.008 |  | 0.02 |  |  | O=C(c1ccc2nc(-c3ccc(F)c(F)c3)oc2c1)N1CC(N2CCN(C(=O)c3nccs3)CC2)C1 [Cpd 1077] |
|  | 622 | 0.009 |  |  | 0.019 |  | O=C(c1ccc2c(c1)CCN2c1ccc(F)cc1)N1CC(N2CCN(C(=O)c3cscn3)CC2)C1 [Cpd 1081] |
| 0.003 | 742 | 0.009 |  |  |  |  | O=C(c1ccc(-c2nc(-c3ccc(F)cc3)cs2)cc1)N1CC(N2CCN(C(=O)c3nccs3)CC2)C1 [Cpd 1082] |
|  | 299 | 0.009 | 0.065 |  |  |  | O=C(c1cc(-c2ccc(Cl)cc2)n(-c2ccc(Cl)c(Cl)c2)n1)N1CC(N2CCN(C(=O)c3nccs3)CC2)C1 [Cpd 1083] |
| 0.009 | 545 | 0.01 | 0.006 |  |  |  | Cc1cn(-c2ccc(F)cc2)c2ccc(C(=O)N3CCN(C4CN(C(=O)c5nccs5)C4)CC3)cc12 [Cpd 1089, 1-(4-Fluorophenyl)-3-methyl-5-({4-[1-(1,3-thiazol-2-ylcarbonyl)azetidin-3-yl]piperazin-1-yl}carbonyl)-1H-indole] |
| 1.64 | 450 | 0.011 |  |  |  |  | COc1ccc(-c2cccc(C(=O)N3CC(N4CCN(C(=O)c5nccs5)CC4)C3)c2)cc1 [Cpd 1091] |
| 0.005 | 838 | 0.011 |  |  |  |  | O=C(c1nccs1)N1CCN(C2CN(C(=O)c3sc4ccc(-c5ccc(C(F)(F)F)cc5)cc4c3F)C2)CC1 [Cpd 1092] |
| 0.24 | 472 | 0.011 |  |  |  |  | O=C(c1cccc(-c2cccc(C(F)(F)F)c2)c1)N1CC(N2CCN(C(=O)c3nccs3)CC2)C1 [Cpd 1093] |
| 0.011 | 484 | 0.011 |  |  |  |  | O=C(c1nccs1)N1CCN(C2CN(C(=O)c3sc4cc(-c5ccccc5)ccc4c3C(F)(F)F)C2)CC1 [Cpd 1095, 1-(1-{[6-Phenyl-3-(trifluoromethyl)-1-benzothiophen-2-yl]carbonyl}azetidin-3-yl)-4-(1,3-thiazol-2-ylcarbonyl)piperazine] |
|  | 449 | 0.011 |  | 0.08 |  |  | Cc1sc(C(=O)N2CC(N3CCN(C(=O)c4nccs4)CC3)C2)cc1-c1ccc(F)cc1 [Cpd 1096] |
| 0.032 | 422 | 0.012 |  |  |  |  | O=C(c1ccc2c(ccn2-c2ccc(C(F)(F)F)cc2)c1)N1CC(N2CCN(C(=O)c3ccns3)CC2)C1 [Cpd 1097, 5-({3-[4-(Isothiazol-5-ylcarbonyl)piperazin-1-yl]azetidin-1-yl}carbonyl)-1-[4-(trifluoromethyl)phenyl]-1H-indole] |
| 0.031 | 296 | 0.012 |  |  |  |  | O=C(c1cscn1)N1CCN(C2CN(C(=O)c3sc4cc(-c5ccccc5)ccc4c3C(F)(F)F)C2)CC1 [Cpd 1098, 1-(1-{[6-Phenyl-3-(trifluoromethyl)-1-benzothiophen-2-yl]carbonyl}azetidin-3-yl)-4-(1,3-thiazol-4-ylcarbonyl)piperazine] |
|  | 508 | 0.012 |  |  | 0.02 |  | O=C(c1ccc2c(c1)CCN2c1ccc(F)cc1)N1CC(N2CCN(C(=O)c3ccc[nH]3)CC2)C1 [Cpd 1099] |
|  | 501 | 0.012 |  | 0.044 |  |  | Cn1ccc2cc(C(=O)N3CC(N4CCN(C(=O)c5nccs5)CC4)C3)cc(-c3ccc(F)cc3)c21 [Cpd 1101] |
| 0.199 | 334 | 0.013 |  |  |  |  | O=C(c1cc(F)cc(-c2ccccc2)c1)N1CC(N2CCN(C(=O)c3nccs3)CC2)C1 [Cpd 1104, 1-{1-[(5-Fluorobiphenyl-3-yl)carbonyl]azetidin-3-yl}-4-(1,3-thiazol-2-ylcarbonyl)piperazine] |
|  | 734 | 0.013 | 0.023 |  |  |  | Cc1ccc(-n2ccc3cc(C(=O)N4CC(N5CCN(C(=O)c6nccs6)CC5)C4)ccc32)cn1 [Cpd 1105, 1-(6-Methylpyridin-3-yl)-5-({3-[4-(1,3-thiazol-2-ylcarbonyl)piperazin-1-yl]azetidin-1-yl}carbonyl)-1H-indole] |
|  | 838 | 0.014 | 0.003 |  |  |  | COc1cc(-n2ccc3cc(C(=O)N4CC(N5CCN(C(=O)c6nccs6)CC5)C4)ccc32)ccn1 [Cpd 1107, 1-(2-Methoxypyridin-4-yl)-5-({3-[4-(1,3-thiazol-2-ylcarbonyl)piperazin-1-yl]azetidin-1-yl}carbonyl)-1H-indole] |
|  | 680 | 0.015 |  |  |  | 0.022 | N#Cc1ccccc1-n1ccc2cc(C(=O)N3CC(N4CCN(C(=O)c5nccs5)CC4)C3)ccc21 [Cpd 1109] |
|  | 508 | 0.016 |  |  | 0.009 |  | O=C(c1cc(F)c2c(ccn2-c2ccc(F)cc2)c1)N1CC(N2CCN(C(=O)c3cscn3)CC2)C1 [Cpd 1111] |
| 0.049 | 293 | 0.016 |  |  |  |  | Cc1cc(C(=O)N2CC(N3CCN(C(=O)c4ccns4)CC3)C2)ccc1-c1cccc(C(F)(F)F)c1 [Cpd 1114, 1-(Isothiazol-5-ylcarbonyl)-4-(1-{[2-methyl-3′-(trifluoromethyl)biphenyl-4-yl]carbonyl}azetidin-3-yl)piperazine] |
|  | 867 | 0.018 | 0.02 |  |  |  | O=C(c1ccc2c(ccn2-c2ccc(C(F)(F)F)cc2)c1)N1CCN(C2CN(C(=O)c3ccc[nH]3)C2)CC1 [Cpd 1120, 5-({4-[1-(1H-Pyrrol-2-ylcarbonyl)azetidin-3-yl]piperazin-1-yl}carbonyl)-1-[4-(trifluoromethyl)phenyl]-1H-indole] |
| 0.027 | 143 | 0.018 |  |  |  |  | O=C(c1ccc(-c2ccccc2)s1)N1CC(N2CCN(C(=O)c3nccs3)CC2)C1 [Cpd 1122, 1-{1-[(5-Phenylthiophen-2-yl)carbonyl]azetidin-3-yl}-4-(1,3-thiazol-2-ylcarbonyl)piperazine] |
|  | 850 | 0.019 | 0.008 |  |  |  | Cc1cccc(-n2ccc3cc(C(=O)N4CC(N5CCN(C(=O)c6nccs6)CC5)C4)ccc32)n1 [Cpd 1126, 1-(6-Methylpyridin-2-yl)-5-({3-[4-(1,3-thiazol-2-ylcarbonyl)piperazin-1-yl]azetidin-1-yl}carbonyl)-1H-indole] |
